Laboratory results as given in ChEMBL document CHEMBL3769371, “1-[(2E)-3-Phenylprop-2-enoyl]-1H-benzimidazoles as anticancer agents: synthesis, crystal structure analysis and binding studies of the most potent anticancer molecule with serum albumin” (Medchemcomm, 2015).

Legend:
[1] = Cytotoxicity against human HOP62 cells assessed as cell growth at 10^-5 M after 48 hrs by SRB assay; assay type: functional; conditions: HOP-62, 48 h, read-out: Activity
MDA-MB-435 = assay: Cytotoxicity against human MDA-MB-435 cells after 48 hrs by SRB assay; assay type: functional; conditions: MDA-MB-435, 48 h
786-0 [2] = assay: Cytotoxicity against human 786-0 cells after 48 hrs by SRB assay; assay type: functional; conditions: 786-0, 48 h
[3] = Cytotoxicity against human OVCAR3 cells assessed as cell growth at 10^-5 M after 48 hrs by SRB assay; assay type: functional; conditions: OVCAR-3, 48 h, read-out: Activity
SK-MEL-2 = assay: Cytotoxicity against human SK-MEL-2 cells after 48 hrs by SRB assay; assay type: functional; conditions: SK-MEL-2, 48 h
[4] = Cytotoxicity against human SKOV3 cells assessed as cell growth at 10^-5 M after 48 hrs by SRB assay; assay type: functional; conditions: SK-OV-3, 48 h, read-out: Activity
[5] = Cytotoxicity against human HOP92 cells after 48 hrs by SRB assay; assay type: functional; conditions: HOP-92, 48 h
[6] = Cytotoxicity against human UACC62 cells after 48 hrs by SRB assay; assay type: functional; conditions: UACC-62, 48 h
A498 = assay: Cytotoxicity against human A498 cells assessed as cell growth at 10^-5 M after 48 hrs by SRB assay; assay type: functional; conditions: A498, 48 h, read-out: Activity
[7] = Antiproliferative activity against human MOLT4 cells at 10'5 M; assay type: functional, MOLT-4
[8] = Cytotoxicity against human SF295 cells assessed as cell growth at 10^-5 M after 48 hrs by SRB assay; assay type: functional; conditions: SF-295, 48 h, read-out: Activity
Albumin = Albumin (Homo sapiens, UniProt P02768); assay: Binding affinity to human serum albumin at 0.25 to 2 uM at 308 K by fluorescence microscopic analysis; assay type: ADME; conditions: isolated protein
U-251 = assay: Cytotoxicity against human U251 cells after 48 hrs by SRB assay; assay type: functional; conditions: U-251, 48 h
HT-29 = assay: Cytotoxicity against human HT-29 cells assessed as cell growth at 10^-5 M after 48 hrs by SRB assay; assay type: functional; conditions: HT-29, 48 h, read-out: Activity
SN12C = assay: Cytotoxicity against human SN12C cells assessed as cell growth at 10^-5 M after 48 hrs by SRB assay; assay type: functional; conditions: read-out: Activity
[9] = Antiproliferative activity against human Hs 578T cells at 10'5 M; assay type: functional
[10] = Cytotoxicity against human MOLT4 cells after 48 hrs by SRB assay; assay type: functional; conditions: MOLT-4, 48 h
[11] = Cytotoxicity against human HCT15 cells assessed as cell growth at 10^-5 M after 48 hrs by SRB assay; assay type: functional; conditions: HCT-15, 48 h, read-out: Activity
MDA-MB-468 = assay: Cytotoxicity against human MDA-MB-468 cells after 48 hrs by SRB assay; assay type: functional; conditions: MDA-MB-468, 48 h
[12] = Cytotoxicity against human OVCAR8 cells after 48 hrs by SRB assay; assay type: functional; conditions: OVCAR-8, 48 h
[13] = Cytotoxicity against human OVCAR3 cells after 48 hrs by SRB assay; assay type: functional; conditions: OVCAR-3, 48 h
NCI-H522 = assay: Cytotoxicity against human NCI-H522 cells assessed as cell growth at 10^-5 M after 48 hrs by SRB assay; assay type: functional; conditions: NCI-H522, 48 h, read-out: Activity
[14] = Cytotoxicity against human IGROV1 cells after 48 hrs by SRB assay; assay type: functional; conditions: IGROV-1, 48 h
[15] = Cytotoxicity against human SF539 cells after 48 hrs by SRB assay; assay type: functional; conditions: SF-539, 48 h
[16] = Cytotoxicity against human DU145 cells assessed as cell growth at 10^-5 M after 48 hrs by SRB assay; assay type: functional; conditions: DU-145, 48 h, read-out: Activity
786-0 [17] = assay: Cytotoxicity against human 786-0 cells assessed as cell growth at 10^-5 M after 48 hrs by SRB assay; assay type: functional; conditions: 786-0, 48 h, read-out: Activity
[18] = Cytotoxicity against human Caki1 cells assessed as cell growth at 10^-5 M after 48 hrs by SRB assay; assay type: functional; conditions: CAKI-1, 48 h, read-out: Activity
[19] = Antiproliferative activity against human NCI-ADR-RES cells at 10'5 M; assay type: functional
[20] = Antiproliferative activity against human SNB75 cells at 10'5 M; assay type: functional, SNB-75
[21] = Cytotoxicity against human UO31 cells assessed as cell growth at 10^-5 M after 48 hrs by SRB assay; assay type: functional; conditions: UO-31, 48 h, read-out: Activity
[22] = Cytotoxicity against human SF268 cells assessed as cell growth at 10^-5 M after 48 hrs by SRB assay; assay type: functional; conditions: SF-268, 48 h, read-out: Activity
[23] = Cytotoxicity against human RPMI8226 cells assessed as cell growth at 10^-5 M after 48 hrs by SRB assay; assay type: functional; conditions: RPMI-8226, 48 h, read-out: Activity
[24] = Antiproliferative activity against human IGROV1 cells at 10'5 M; assay type: functional, IGROV-1
[25] = Cytotoxicity against human HOP62 cells after 48 hrs by SRB assay; assay type: functional; conditions: HOP-62, 48 h
T47D = assay: Cytotoxicity against human T47D cells after 48 hrs by SRB assay; assay type: functional
[26] = Cytotoxicity against human NCI-ADR-RES cells assessed as cell growth at 10^-5 M after 48 hrs by SRB assay; assay type: functional; conditions: read-out: Activity
NCI-H226 = assay: Cytotoxicity against human NCI-H226 cells after 48 hrs by SRB assay; assay type: functional; conditions: NCI-H226, 48 h
[27] = Cytotoxicity against human SNB75 cells after 48 hrs by SRB assay; assay type: functional; conditions: SNB-75, 48 h
[28] = Cytotoxicity against human RXF393 cells after 48 hrs by SRB assay; assay type: functional; conditions: RXF 393, 48 h
[29] = read-out: LC50 (the source's name)

Sequence of Albumin (P02768 whole entry): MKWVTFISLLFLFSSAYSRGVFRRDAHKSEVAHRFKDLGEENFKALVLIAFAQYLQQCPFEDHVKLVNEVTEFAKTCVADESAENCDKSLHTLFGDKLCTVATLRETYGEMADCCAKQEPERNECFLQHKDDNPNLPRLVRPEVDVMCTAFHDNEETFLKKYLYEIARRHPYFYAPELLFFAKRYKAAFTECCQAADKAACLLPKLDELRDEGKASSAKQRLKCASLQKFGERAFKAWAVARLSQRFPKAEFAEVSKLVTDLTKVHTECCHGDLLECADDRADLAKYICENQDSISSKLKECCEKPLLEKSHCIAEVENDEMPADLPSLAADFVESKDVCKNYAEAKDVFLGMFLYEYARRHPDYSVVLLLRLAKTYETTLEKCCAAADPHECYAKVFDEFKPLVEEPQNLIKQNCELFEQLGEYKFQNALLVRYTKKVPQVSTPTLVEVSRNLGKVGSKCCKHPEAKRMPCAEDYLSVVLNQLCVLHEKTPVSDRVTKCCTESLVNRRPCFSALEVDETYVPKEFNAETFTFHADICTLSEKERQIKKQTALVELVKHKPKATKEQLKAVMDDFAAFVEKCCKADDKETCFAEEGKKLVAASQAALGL

`O=C(/C=C/c1ccccc1)n1c(-c2ccc(Cl)cc2)nc2ccccc21` gave a growth at 10 µM [1] of -48.8%, a GI50 (MDA-MB-435) of 1.9 µM and a TGI (MDA-MB-435) of 5.05 µM. The CC50 (MDA-MB-435; [29]) was 19.6 µM, the GI50 (786-0 [2]) was 2.43 µM and the TGI (786-0 [2]) was 5.71 µM. It also gave a CC50 (786-0 [2]; [29]) of 18 µM, a growth at 10 µM [3] of -57.2% and a GI50 (SK-MEL-2) of 1.11 µM. It also gave a TGI (SK-MEL-2) of 3.04 µM, a CC50 (SK-MEL-2; [29]) of 8.32 µM and a growth at 10 µM [4] of 23.9%. The GI50 [5] was 2.72 µM, the TGI [5] was 5.17 µM and the CC50 [5, 29] was 9.81 µM. The GI50 [6] was 1.47 µM, the TGI [6] was 3.42 µM and the CC50 [6, 29] was 7.93 µM. For the same molecule, the growth at 10 µM (A498) was -14.6%, the “growth inhibition (GI)” value [7] was 78.07% and the growth at 10 µM [8] was -52%. The K (Albumin) was 6.27 ×10³ /mol, the GI50 (U-251) was 1.44 µM and the TGI (U-251) was 3.77 µM. For the same molecule, the CC50 (U-251; [29]) was 9.91 µM, the growth at 10 µM (HT-29) was -40.6% and the growth at 10 µM (SN12C) was -48.5%. The “growth inhibition (GI)” value [9] was 80.03%, the GI50 [10] was 1.13 µM and the TGI [10] was 6.73 µM. For the same molecule, the CC50 [10, 29] was over 100 µM, the growth at 10 µM [11] was -24.8% and the GI50 (MDA-MB-468) was 1.52 µM. It also gave a TGI (MDA-MB-468) of 4.32 µM, a CC50 (MDA-MB-468; [29]) of 23.7 µM and a GI50 [12] of 1.74 µM. The TGI [12] was 4.21 µM, the CC50 [12, 29] was 10.5 µM and the GI50 [13] was 1.95 µM. For the same molecule, the TGI [13] was 4.63 µM, the CC50 [13, 29] was 13.4 µM and the growth at 10 µM (NCI-H522) was -72.4%. The GI50 [14] was 1.27 µM, the TGI [14] was 2.88 µM and the CC50 [14, 29] was 6.53 µM. The GI50 [15] was 2.5 µM, the TGI [15] was 6.46 µM and the CC50 [15, 29] was 26.1 µM. For the same molecule, the growth at 10 µM [16] was 11.1%, the growth at 10 µM (786-0 [17]) was -17.6% and the growth at 10 µM [18] was -39.5%. For the same molecule, the “growth inhibition (GI)” value [19] was 89.22%, the “growth inhibition (GI)” value [20] was 81.93% and the growth at 10 µM [21] was -39%. For the same molecule, the growth at 10 µM [22] was -11.8%, the growth at 10 µM [23] was -31.1% and the “growth inhibition (GI)” value [24] was 89.62%. The GI50 [25] was 1.89 µM, the TGI [25] was 7.3 µM and the CC50 [25, 29] was 35.1 µM. The GI50 (T47D) was 1.73 µM, the TGI (T47D) was 7.68 µM and the CC50 (T47D; [29]) was 57.5 µM. It also gave a growth at 10 µM [26] of 10.8%, a GI50 (NCI-H226) of 1.46 µM and a TGI (NCI-H226) of 3.82 µM. The CC50 (NCI-H226; [29]) was 10 µM, the GI50 [27] was 3.13 µM and the TGI [27] was 12.8 µM. For the same molecule, the CC50 [27, 29] was 40.5 µM, the GI50 [28] was 1.32 µM and the TGI [28] was 3.12 µM. The CC50 [28, 29] was 7.37 µM.
